Entries after “also recorded” stand apart in the source; their conditions may differ.
How the values were obtained:
[1] = target: T1, purified human 20S proteasome (Homo sapiens, UniProt P25787+P60900); assay: In-gel overlay activity on non-denaturing gel, 20S proteasome; format: biochemical; conditions: 1 microM, 15 min, 100 microM Suc-LLVY-MCA
T1 construct: purified from erythrocytes; purchased Boston Biochem, Inc. or Enzo Life Sciences, Inc; host or cells: human erythrocytes
Procedure: Purified human 20S and 26S proteasomes were separated on non-denaturing polyacrylamide gel. The gel was overlayed with reaction buffer containing 100 microM fluorogenic peptide substrate Suc-LLVY-MCA (SEQ ID NO: 14) and 1% of vehicle solvent (DMSO) or the substrate and 1 microM Tat1 8,9 TOD. The gel was photographed after 15 min of incubation and then stained for the total protein content with Coomassie Brilliant Blue, and photographed. […] The protein content was the same for the control and Tat-overlayed sets. The activities of both 26S and 20S are enhanced by Tat1 8,9 TOD. The enhanced activity of 26S was not the result of Tat1 8,9 TOD—induced breaking of the 26S assembly into its components (19S and 20S) and activation of the released 20S catalytic core that still remains in the gel together with the whole 26S assembly. […] Traces of the 20S in both control 26S preparation and preparation pre-incubated with Tat1 8,9 TOD.

MC65 cells = assay: Cell death in MC65 AD cell model under tetracycline withdrawal (WST-1 viability); format: cell-based, human
Procedure: Cell culture. Cells were cultured in EMEM (SK-N-SH), DMEM (MC65) supplemented with 10% heat-inactivated fetal bovine serum and antibiotics (100 U mL^−1 penicillin, 100 μg mL^−1 streptomycin, and 0.25 μg mL^−1 of amphotericin B; Gibco-Invitrogen). Incubators were maintained at 5% CO2, and 37° C. Medium was replaced every 3-4days. For most experiments, cells were seeded at 100,000 cells mL^−1 in either 6-well or 96 well plates 24 h prior to assay. In most cases, media was replaced with serum free optimem media 24 h prior to assay.
Cell viability. Cell maintained in a clear 96 well plate. On the day of assay, 10 μl of WST-1 reagent (11644807001, Sigma Aldrich) was added to each well and cells incubated in a 37° C. 5% CO2 incubator for 2-4 hours. Absorbance was measured at 450 nm using a gemini series spectrophotometer.
The compounds were tested as follows: in neuroblast MC65 cell culture model with overexpressed C99 fragment of amyloid precursor protein (APP) upon tetracycline withdrawal or with external APP added; and in fruit fly (D. melanogaster) model of AD with overexpressed APP and BACE1. The compounds (1 μM) were mixed with food. Flies were trained to recognize “positive” and “negative” odors (olfaction aversion). The compounds were also treated in hAPP (J20) mice which overexpress a familial variant of APP. The compounds were injected for 14 days (1 mg/kg). […]

[2] = target: T2, proteasome activity in CNS of non-transgenic mice (Mus musculus, UniProt P49722+Q9QUM9); assay: Proteasome activity in CNS of mice after IP injection; format: in vivo
T2 construct: from tissue; host or cells: CNS of non-transgenic mice
Procedure: Plate-based proteasome activity assay. Samples were homogenized by pestle in 100 μL chilled proteasome buffer (50 mM Tris, 5 mM MgCl2, 1 mM DTT, pH 7.4, vortexed and then centrifuged at 21,000 g at 4° C. for 15 minutes and supernatant transferred. Protein content was recorded by Bradford assay and samples diluted as appropriate. In a black 96-well plate, 10 μL of samples were added to 80 μL proteasome buffer supplemented with addition of 5 mM ATP for measuring 26S proteasome activity. Finally, 50 μM Suc-LLVY-AMC fluorogenic substrate in 10 μL proteasome buffer was added to each well to measure chymotrypsin-like activity. The plate was incubated at 37° C. in a SpectrumMax M2 plate reader for four hours with fluorescence measured every 10 minutes with 355 nm excitation and reading 460 nm emission. Total proteasome activity per sample was defined as the gradient of the linear trendline over this incubation period.

hAPP(J20) mice = assay: Novel object recognition assay in hAPP(J20) mice; format: in vivo, mouse; conditions: 14 days IP injection, 1 mg/kg, listed as Tat-TOD
Procedure: Novel object recognition test. To measure recognition of a previously encountered object, animals are placed in an opacified rat cage with bedding for 10 min. The following (training) day, mice are returned to the chamber, which now contains two identical objects, and allowed to explore the arena for 5 minutes. Percent of time exploring each object is recorded using TopScan. During testing (4 hours after training) one of the objects in the box is replaced with a new object and the side of the replaced object randomized amongst animals. Mice are given 5 mins to explore the two objects, and percent time exploring each object is recorded using TopScan. A discrimination ratio calculated as (tnovel−tfamiliar)/(tnovel+tfamiliar) is used as a measure of retention of the priorly encountered object (positive and negative discrimination ratio values indicate a preference for exploration of the novel and familiar objects, respectively).
The compounds were tested as follows: in neuroblast MC65 cell culture model with overexpressed C99 fragment of amyloid precursor protein (APP) upon tetracycline withdrawal or with external APP added; and in fruit fly (D. melanogaster) model of AD with overexpressed APP and BACE1. The compounds (1 μM) were mixed with food. Flies were trained to recognize “positive” and “negative” odors (olfaction aversion). […]

20S proteasome [3] = target: T3, 20S proteasome (Homo sapiens, UniProt P25787+P60900); conditions: cited from earlier work
20S proteasome [4] = target: T3, 20S proteasome; assay: AFM imaging of gate conformers of 20S proteasomes; design: purified from erythrocytes; purchased Boston Biochem, Inc. or Enzo Life Sciences, Inc; host or cells: human erythrocytes; conditions: 1 μM
Procedure: Atomic Force Microscopy (AFM) Imaging. Single molecules of 20S proteasomes were imaged in tapping (oscillating) mode in liquid, with a scanner E of the Multimode Nanoscope IIIa (Bruker Inc., Santa Barbara, Calif.). The proteasomes were electrostatically attached to a muscovite mica substrate, covered with imaging buffer (5 mM Tris/HCl, pH 7) and scanned using cantilevers with the spring constant of 0.35 N/m from the SNL (Sharp Nitride Lever) probes (Bruker Inc., Santa Barbara, Calif.) tuned to 9-10 kHz. The amplitude set-point in the range of 1.5-2.0V, drive voltage of 300-500 mV and 3.05 Hz scanning rate were used. Scans of 1 μm^2 fields (512×512 pixels) were collected in height-mode. The images of fields typically contained several dozens of top-view (“standing”) 20S proteasome particles. The gate status was deduced from a profile of raw height values of pixels measured by a probe scanning across the single proteasome particles. In short, under the employed scanning conditions the proteasome a face with the central gate area was completely rendered by a six-pixel (11-12 nm) scan-line fragment. Numerical values of the height of particles of raw (after standard flattening) images were collected with a practical vertical resolution reaching 1 Å. […] The “events” of gate opening/closing were analysed for scans of distinct particles as well as multiple scans of the same particles.

## N=C(N)NCCCC(NC(=O)CN)C(=O)NC(CCCCN)C(=O)NC(CCCCN)C(=O)NC(CCCNC(=N)N)C(=O)NC(CCCNC(=N)N)C(=O)NC(CCC(N)=O)C(=O)N1Cc2ccccc2C[C@H]1C(=O)N1C(C(=O)NC(CCCNC(N)N)C(=O)N2CCCC2C(=O)NC(CO)C(=O)O)CC2CCCCC21 (some centres unmarked) [(5), GRKKRRQ-TOD-RPS]
[1]
  20S activity in gel overlay: enhanced
MC65 cells; 1 μM
  survival of neuroblasts overexpressing APP: improves survival
MC65 cells; MC65, WST1 viability assay
  cell death under tetracycline withdrawal: significantly reduces cell death
[2]; 24 hours after intraperitoneal injection
  proteasome activity in the central nervous system: significantly enhances proteasome activity
[2]; mice, IP injection
  blood-brain-barrier penetration: stably penetrates the blood-brain-barrier
hAPP(J20) mice
  learning and memory, novel object recognition: efficiently explore their surroundings to recognize novel objects; also recorded: significantly enhances learning and memory
20S proteasome [3]
  degradation by 20S proteasome: resistant to degradation
20S proteasome [4]
  intermediate conformers: 27%
